Each block holds one compound with its values, some of them ahead of it.
Assays:
[1] = target: T1, Gamma-aminobutyric acid receptor subunit alpha-1 (Homo sapiens) (UniProt P14867); assay: Selectivity interaction (Panel of non-epigenetic targets (kinases, GPCRs, ion channels, and transporters, Eurofins) ) EUB0000271b GABRA1; details: at 1 µM
T1 sequence (whole entry): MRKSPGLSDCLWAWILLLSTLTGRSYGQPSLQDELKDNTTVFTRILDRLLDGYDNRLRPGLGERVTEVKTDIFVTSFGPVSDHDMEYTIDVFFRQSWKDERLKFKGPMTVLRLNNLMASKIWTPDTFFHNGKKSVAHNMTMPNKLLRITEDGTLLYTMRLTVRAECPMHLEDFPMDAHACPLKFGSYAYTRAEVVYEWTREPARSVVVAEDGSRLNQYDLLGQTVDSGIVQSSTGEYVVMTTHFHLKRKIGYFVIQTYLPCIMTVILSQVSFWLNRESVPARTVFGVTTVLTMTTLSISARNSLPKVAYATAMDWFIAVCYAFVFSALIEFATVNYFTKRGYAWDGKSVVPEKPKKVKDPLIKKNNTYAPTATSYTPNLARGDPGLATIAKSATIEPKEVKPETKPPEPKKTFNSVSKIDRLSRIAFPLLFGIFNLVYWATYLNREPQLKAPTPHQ

[2] = target: Rho-associated protein kinase 1 (Homo sapiens) (UniProt Q13464); assay: Selectivity interaction (KinomeScan (DiscoverX)) EUB0000655a ROCK1; details: at 10 µM
Chain of Rho-associated protein kinase 1 (Homo sapiens) (Q13464 2-1354 limits assumed): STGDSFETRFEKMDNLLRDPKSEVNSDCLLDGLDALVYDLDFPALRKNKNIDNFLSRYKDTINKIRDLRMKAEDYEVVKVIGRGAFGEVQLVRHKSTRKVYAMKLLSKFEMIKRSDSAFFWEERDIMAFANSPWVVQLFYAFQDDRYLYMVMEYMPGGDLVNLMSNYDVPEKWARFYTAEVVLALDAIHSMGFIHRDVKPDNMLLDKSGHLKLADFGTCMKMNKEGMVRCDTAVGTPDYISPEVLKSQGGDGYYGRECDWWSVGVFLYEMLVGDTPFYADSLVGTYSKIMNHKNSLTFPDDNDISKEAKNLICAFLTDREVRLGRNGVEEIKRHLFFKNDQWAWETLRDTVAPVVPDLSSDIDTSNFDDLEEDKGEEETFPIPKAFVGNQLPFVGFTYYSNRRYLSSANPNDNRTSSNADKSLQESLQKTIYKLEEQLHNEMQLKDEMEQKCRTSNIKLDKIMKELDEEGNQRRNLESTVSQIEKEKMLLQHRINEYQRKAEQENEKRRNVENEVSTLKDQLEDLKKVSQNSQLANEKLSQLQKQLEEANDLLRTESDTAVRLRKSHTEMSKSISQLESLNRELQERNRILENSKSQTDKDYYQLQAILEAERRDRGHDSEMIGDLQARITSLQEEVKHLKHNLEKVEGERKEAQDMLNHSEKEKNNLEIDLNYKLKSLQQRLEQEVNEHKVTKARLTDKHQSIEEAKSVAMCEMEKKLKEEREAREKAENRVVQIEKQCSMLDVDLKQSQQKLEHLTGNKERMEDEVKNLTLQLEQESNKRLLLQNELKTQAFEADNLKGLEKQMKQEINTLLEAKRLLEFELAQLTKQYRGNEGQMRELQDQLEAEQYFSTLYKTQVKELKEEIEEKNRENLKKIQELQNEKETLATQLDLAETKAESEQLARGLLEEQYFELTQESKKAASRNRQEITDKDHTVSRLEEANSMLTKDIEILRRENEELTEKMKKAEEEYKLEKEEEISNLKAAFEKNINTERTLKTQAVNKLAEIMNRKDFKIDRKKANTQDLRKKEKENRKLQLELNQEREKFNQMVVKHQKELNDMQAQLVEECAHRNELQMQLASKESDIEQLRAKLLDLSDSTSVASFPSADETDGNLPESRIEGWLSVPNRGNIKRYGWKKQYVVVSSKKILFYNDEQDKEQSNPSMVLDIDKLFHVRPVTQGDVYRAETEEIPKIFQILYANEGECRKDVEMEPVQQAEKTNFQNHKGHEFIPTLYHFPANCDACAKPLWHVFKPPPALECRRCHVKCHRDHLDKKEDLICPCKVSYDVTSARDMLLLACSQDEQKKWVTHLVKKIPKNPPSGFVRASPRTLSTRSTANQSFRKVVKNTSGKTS

[3] = system: eIF-2-alpha kinase GCN2 (Homo sapiens), Q9P2K8 [S808G]; assay: Selectivity interaction (KinomeScan (DiscoverX)) EUB0000618a EIF2AK4; details: at 10 µM
Chain of eIF-2-alpha kinase GCN2 (Homo sapiens), Q9P2K8 [S808G] (Q9P2K8 whole entry S808G): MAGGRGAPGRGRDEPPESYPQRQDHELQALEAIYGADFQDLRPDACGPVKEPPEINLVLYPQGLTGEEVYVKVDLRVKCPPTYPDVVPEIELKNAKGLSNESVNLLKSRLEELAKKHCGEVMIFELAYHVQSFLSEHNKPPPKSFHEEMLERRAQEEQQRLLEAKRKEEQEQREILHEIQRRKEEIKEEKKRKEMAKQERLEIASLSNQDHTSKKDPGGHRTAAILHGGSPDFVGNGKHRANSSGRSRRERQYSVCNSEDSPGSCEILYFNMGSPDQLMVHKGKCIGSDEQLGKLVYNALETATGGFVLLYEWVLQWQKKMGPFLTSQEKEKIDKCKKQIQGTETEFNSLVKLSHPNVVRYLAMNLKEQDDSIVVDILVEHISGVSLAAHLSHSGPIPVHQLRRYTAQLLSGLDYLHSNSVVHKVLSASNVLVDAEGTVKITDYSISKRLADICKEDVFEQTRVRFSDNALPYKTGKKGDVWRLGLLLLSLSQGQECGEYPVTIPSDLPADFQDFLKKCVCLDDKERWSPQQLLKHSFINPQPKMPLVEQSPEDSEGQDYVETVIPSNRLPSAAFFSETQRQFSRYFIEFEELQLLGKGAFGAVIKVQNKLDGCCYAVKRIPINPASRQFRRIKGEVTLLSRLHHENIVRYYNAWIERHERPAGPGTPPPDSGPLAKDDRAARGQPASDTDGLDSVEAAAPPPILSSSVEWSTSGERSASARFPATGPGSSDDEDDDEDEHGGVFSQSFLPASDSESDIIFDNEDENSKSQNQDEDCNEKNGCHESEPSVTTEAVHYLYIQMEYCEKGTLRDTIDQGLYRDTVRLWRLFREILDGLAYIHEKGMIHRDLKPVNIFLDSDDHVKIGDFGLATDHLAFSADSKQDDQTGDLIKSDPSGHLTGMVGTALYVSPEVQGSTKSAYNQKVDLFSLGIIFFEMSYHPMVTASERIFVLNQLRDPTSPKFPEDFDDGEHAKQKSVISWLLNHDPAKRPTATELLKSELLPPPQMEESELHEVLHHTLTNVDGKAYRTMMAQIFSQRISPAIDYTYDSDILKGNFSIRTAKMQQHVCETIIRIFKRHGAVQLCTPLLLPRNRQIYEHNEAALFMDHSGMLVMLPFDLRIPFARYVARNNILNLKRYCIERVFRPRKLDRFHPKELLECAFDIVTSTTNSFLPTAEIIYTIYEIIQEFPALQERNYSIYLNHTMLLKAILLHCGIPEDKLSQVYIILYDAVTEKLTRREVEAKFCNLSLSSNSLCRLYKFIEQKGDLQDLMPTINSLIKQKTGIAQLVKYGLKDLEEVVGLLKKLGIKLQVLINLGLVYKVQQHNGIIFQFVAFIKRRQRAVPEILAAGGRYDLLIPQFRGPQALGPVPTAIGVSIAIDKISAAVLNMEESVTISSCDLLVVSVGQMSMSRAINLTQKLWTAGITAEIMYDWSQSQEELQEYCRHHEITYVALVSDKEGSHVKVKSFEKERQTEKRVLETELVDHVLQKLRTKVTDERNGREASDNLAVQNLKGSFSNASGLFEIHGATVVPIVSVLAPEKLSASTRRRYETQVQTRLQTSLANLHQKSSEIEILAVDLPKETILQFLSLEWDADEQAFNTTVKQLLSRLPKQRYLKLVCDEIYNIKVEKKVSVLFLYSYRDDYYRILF

[4] = target: Myosin light chain kinase 2, skeletal/cardiac muscle (Homo sapiens) (UniProt Q9H1R3); assay: Selectivity interaction (KinomeScan (DiscoverX)) EUB0000618a MYLK2; details: at 10 µM
Chain of Myosin light chain kinase 2, skeletal/cardiac muscle (Homo sapiens) (Q9H1R3 whole entry): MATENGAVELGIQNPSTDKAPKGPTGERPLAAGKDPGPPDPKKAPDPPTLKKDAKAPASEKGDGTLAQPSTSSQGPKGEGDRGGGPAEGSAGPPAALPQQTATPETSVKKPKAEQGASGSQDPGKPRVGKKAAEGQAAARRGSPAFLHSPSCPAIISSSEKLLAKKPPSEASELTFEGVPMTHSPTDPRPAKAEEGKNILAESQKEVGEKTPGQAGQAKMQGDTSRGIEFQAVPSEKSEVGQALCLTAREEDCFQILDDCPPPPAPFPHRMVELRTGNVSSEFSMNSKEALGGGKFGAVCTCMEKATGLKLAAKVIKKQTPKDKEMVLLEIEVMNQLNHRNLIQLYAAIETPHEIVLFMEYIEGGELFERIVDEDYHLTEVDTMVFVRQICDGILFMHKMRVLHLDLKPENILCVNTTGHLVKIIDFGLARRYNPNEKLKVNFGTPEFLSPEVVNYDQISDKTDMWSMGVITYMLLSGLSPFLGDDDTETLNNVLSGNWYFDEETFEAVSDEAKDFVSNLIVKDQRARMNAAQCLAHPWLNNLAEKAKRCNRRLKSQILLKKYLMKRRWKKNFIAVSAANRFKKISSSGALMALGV

[5] = target: T2, Ephrin type-A receptor 1 (Homo sapiens) (UniProt P21709); assay: Selectivity interaction (KinomeScan (DiscoverX)) EUB0000607a EPHA1; details: at 10 µM
T2 sequence (whole entry): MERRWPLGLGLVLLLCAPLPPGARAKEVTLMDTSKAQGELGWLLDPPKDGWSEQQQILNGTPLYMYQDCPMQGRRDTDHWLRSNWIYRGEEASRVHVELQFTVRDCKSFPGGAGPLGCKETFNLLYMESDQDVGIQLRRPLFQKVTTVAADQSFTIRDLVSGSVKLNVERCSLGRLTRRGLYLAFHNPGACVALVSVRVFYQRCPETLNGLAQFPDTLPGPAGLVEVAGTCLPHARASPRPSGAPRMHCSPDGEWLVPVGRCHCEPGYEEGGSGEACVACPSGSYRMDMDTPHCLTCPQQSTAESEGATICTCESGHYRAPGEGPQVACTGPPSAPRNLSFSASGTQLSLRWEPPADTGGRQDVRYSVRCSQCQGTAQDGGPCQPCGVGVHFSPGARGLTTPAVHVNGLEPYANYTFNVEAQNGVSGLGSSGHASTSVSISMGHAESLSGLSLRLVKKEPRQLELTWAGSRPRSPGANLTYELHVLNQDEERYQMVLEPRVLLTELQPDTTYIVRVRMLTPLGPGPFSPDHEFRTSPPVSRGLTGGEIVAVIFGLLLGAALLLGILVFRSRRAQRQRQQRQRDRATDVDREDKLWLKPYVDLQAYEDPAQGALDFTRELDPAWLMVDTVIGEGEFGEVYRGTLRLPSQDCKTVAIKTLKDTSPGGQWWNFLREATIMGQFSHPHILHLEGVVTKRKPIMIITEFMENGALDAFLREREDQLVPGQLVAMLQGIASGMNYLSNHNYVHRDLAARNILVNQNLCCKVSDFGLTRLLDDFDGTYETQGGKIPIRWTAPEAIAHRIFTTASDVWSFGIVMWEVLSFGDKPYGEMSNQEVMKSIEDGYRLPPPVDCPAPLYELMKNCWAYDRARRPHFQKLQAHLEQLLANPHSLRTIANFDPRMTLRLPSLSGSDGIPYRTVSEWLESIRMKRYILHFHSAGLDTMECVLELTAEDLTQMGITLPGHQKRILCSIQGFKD

[6] = target: T3, Activin receptor type-1B (Homo sapiens) (UniProt P36896); assay: Selectivity interaction (ProQinase) EUB0000171b ACVR1B
T3 sequence (whole entry): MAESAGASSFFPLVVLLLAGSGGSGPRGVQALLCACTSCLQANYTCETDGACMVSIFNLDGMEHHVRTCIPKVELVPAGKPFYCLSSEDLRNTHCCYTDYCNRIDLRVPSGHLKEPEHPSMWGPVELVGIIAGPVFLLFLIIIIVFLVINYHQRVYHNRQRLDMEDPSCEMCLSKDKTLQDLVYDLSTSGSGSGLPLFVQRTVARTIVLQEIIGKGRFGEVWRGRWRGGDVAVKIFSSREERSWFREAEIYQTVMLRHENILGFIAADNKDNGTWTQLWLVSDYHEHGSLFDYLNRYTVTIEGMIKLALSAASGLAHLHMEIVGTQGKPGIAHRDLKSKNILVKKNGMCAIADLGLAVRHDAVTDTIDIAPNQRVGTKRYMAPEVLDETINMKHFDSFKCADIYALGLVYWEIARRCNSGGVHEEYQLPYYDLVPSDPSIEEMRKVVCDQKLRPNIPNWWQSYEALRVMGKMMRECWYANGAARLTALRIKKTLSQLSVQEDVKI

[7] = target: Cyclin-dependent kinase 13 (Homo sapiens, UniProt Q14004); assay: Selectivity interaction (KinomeScan (DiscoverX)) EUB0000092b CDK13; details: at 10 µM
Chain of Cyclin-dependent kinase 13 (Q14004 whole entry, looked up): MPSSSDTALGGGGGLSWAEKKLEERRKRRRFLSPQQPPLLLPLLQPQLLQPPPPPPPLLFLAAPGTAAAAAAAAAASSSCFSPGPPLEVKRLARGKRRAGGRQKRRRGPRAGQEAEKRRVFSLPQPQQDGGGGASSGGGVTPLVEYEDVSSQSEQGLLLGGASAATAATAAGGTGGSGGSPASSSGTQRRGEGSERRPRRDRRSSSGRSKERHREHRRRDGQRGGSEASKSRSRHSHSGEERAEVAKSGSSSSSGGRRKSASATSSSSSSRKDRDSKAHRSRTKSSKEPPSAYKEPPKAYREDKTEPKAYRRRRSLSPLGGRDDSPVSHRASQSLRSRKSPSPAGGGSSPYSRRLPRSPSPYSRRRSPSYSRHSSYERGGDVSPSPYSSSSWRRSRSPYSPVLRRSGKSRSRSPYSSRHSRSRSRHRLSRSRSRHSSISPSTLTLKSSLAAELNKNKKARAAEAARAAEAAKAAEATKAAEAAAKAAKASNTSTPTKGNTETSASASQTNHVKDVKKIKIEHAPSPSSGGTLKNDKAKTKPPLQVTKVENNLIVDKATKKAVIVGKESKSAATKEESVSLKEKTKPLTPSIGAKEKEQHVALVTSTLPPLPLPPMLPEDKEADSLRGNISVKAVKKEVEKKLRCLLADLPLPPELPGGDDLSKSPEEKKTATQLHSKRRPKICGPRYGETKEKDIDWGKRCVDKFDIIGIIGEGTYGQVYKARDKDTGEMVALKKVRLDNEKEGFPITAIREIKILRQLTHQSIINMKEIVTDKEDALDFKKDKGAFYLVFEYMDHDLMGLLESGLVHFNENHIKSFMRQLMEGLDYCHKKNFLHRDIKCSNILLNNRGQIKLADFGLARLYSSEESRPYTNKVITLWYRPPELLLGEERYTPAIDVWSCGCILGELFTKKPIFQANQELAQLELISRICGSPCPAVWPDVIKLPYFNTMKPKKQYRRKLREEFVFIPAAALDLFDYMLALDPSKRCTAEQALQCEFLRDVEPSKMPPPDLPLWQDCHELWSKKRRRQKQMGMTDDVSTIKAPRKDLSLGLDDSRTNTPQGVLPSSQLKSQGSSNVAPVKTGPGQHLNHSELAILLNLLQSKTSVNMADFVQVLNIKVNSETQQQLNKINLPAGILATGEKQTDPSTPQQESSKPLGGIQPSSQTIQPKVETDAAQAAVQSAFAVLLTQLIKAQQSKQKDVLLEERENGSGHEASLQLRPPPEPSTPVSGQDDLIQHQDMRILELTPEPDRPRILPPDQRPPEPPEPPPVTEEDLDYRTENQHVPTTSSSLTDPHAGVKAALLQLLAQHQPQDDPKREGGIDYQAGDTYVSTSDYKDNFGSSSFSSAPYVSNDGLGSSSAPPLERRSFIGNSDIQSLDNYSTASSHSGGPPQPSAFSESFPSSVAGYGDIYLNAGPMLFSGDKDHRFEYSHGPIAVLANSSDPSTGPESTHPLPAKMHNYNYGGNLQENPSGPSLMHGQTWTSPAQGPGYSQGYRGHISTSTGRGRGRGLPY

[8] = target: Macrophage colony-stimulating factor 1 receptor (Homo sapiens) (UniProt P07333); assay: Selectivity interaction (Kinase panel (Z-LYTE Assay)) EUB0001632a CSF1R; details: at 10 µM

SMILES: Cc1cc(C)cc([C@@H]2c3cc(C)ccc3NC(=O)CN2C(=O)c2ccc(Br)s2)c1
% of inhibition [1]: -9%

SMILES: CN(C)CCOc1ccc(-c2nc(-c3ccncc3)c(-c3ccc4c(c3)CC/C4=N\O)[nH]2)cc1
% of control [2]: 77%

SMILES: O[C@H]1CC[C@H](Nc2ncc3nc(Nc4c(F)cc(F)cc4F)n([C@H]4CCOC4)c3n2)CC1
% of control [3]: 100% | % of control [4]: 100%

SMILES: CNC(=O)Nc1ccc(-c2nc(N3CC4CCC(C3)O4)c3cnn(C4CCC5(CC4)OCCO5)c3n2)cc1
% of control [5]: 81%

% of control ([6]; at 1 µM): 94% | % of control ([6]; at 5 µM): 94%
SMILES: C=CC(=O)Nc1cccc(C(=O)Nc2ccc(Nc3cc(-c4[nH]c(SC)nc4C)ccn3)cc2)c1

SMILES: CCC(=O)N1CCN(c2ccc(-n3c(=O)ccc4cnc5ccc(-c6cnc7ccccc7c6)cc5c43)cc2C(F)(F)F)CC1
% of control [7]: 80%

% of control [8]: 20%
SMILES: Cn1cc(-n2cnc3c(NCc4nc5cc(Cl)c(Cl)cc5[nH]4)nc(N4CCOCC4)nc32)cn1
